Test results: ChEMBL document CHEMBL1156576, “Determination of log D via automated microfluidic liquid-liquid extraction” (J Med Chem, 2008)

How the values were obtained:
[1] = buffer, pH 7.4
[2] = buffer, pH 7.4; remark: listed apart in the source
[3] = physchem; details: buffer, pH 7.4
[4] = physchem; details: buffer, pH 7.4; remark: listed apart in the source

SMILES | logD [1] | logD [2] | logD [3] | logD [4]
CN(C)CCC(c1ccc(Cl)cc1)c1ccccn1 (stereo not drawn) [CHLORPHENIRAMINE] | 0.26 | 0.28 |  | 
CNC(=C[N+](=O)[O-])NCCSCc1ccc(CN(C)C)o1 [RANITIDINE] |  |  | -0.99 | -0.91
CC(C)N(CC[C@](C(N)=O)(c1ccccc1)c1ccccn1)C(C)C [(S)-DISOPYRAMIDE] |  |  | 0.39 | 0.52
CC(=O)OCC(=O)[C@@]1(O)CC[C@H]2[C@@H]3CCC4=CC(=O)CC[C@]4(C)[C@H]3[C@@H](O)C[C@@]21C [HYDROCORTISONE ACETATE] |  |  | 2.11 | 2.21
CCN(CC)CCNC(=O)c1ccc(N)cc1 [PROCAINAMIDE] |  |  | -0.94 | -0.89
CCN(CC)CCNC(=O)c1cc(S(C)(=O)=O)ccc1OC [TIAPRIDE] |  |  | -0.9 | -0.85
NS(=O)(=O)c1cc(C2(O)NC(=O)c3ccccc32)ccc1Cl (stereo not drawn) [CHLORTHALIDONE] |  |  | 0.85 | 0.94
CN/C(=N/CCSCc1nc[nH]c1C)NC#N [CIMETIDINE] |  |  | 0.29 | 0.34
CC(=O)Nc1ccc(O)cc1 [ACETAMINOPHEN] |  |  | 0.27 | 0.33
